Values after ≈ are worked out from the molar mass of the structure shown. Where two headings read alike, the source gives them in different places.
What was measured:
[1] = test system: acetic acid-induced stress mice; assay: Chemical induced stress (acetic acid model, writhes); type: in vivo, Balb/C mice
Text: The anti-stress effect of synthesized flavonoids was screened for chemical-induced stress using the acetic acid model. Animals were randomly assigned into two groups of 8. The control group received Tween 80 (2%). […] The treatments in all groups were given persistently for a period of 15 days.

mice [2] = assay: Restraint stress, organ weights; type: in vivo, Balb/C mice; conditions: restraint stress 2 h; flavonoids 10 mg/kg p.o., standard diazepam 2 mg/kg IP, 15 days; mean ± SEM
Text: (§1) The adhesive tape was removed, and blood samples were collected. After blood collection, the animals were sacrificed, and the brain and vital organs were isolated and weighed.

mice [3] = assay: Swimming endurance test; type: in vivo, Balb/C mice; conditions: flavonoids 10 mg/kg, standard diazepam 2 mg/kg IP, 15 days; recorded for 30 min; mean ± SEM, n = 8
Protocol: Animals were divided at random into two groups of 8. Tween 80 (2%) was given to the control group, while animals in each group were treated with 10 mg/kg of each flavonoid. […] All the doses were given constantly for 15 days. On 15th day, one hour after the dose administration, all the animals were allowed to swim in isolation in a glass tank. The time of immobility for each animal was recorded for a period of 30 min [26, 27].

mice [4] = assay: Biochemical parameters in blood after restraint stress; type: in vivo, Balb/C mice; conditions: flavonoids 10 mg/kg, standard diazepam 2 mg/kg, 15 days, mean ± SEM
Text: as §1
After restrain test, blood samples were collected for the assessment of blood glucose, triglycerides and total cholesterol levels, using available commercial kits. […]

mice [5] = assay: Biochemical parameters in brain after restraint stress; type: in vivo, Balb/C mice; conditions: flavonoids 10 mg/kg, standard diazepam 2 mg/kg, 15 days, mean ± SEM
[6] = DPPH free radical scavenging assay; type: biochemical; conditions: concentration range 6.25–50 μg/mL, absorbance 517 nm
Protocol: Scavenging activities for DPPH and ABTS were calculated and the IC50 was determined.

[7] = Mus musculus, ip, 360 h; read-out: Antistress Response (%)
[8] = flavonoids 10 mg/kg, standard diazepam 2 mg/kg IP, 15 days; acetic acid i.p. 0.1 mL (6% v/v), writhes within 20 min; mean ± SEM, n = 8
[9] = Mus musculus, ip, 360 h, read-out: Antistress Response (%)

| SMILES | inhibition in vivo at 10 mg/kg [1, 7] [%] | Number of Writhes [1, 8] | Weight of Adrenal Gland (mice [2]) | Weight of Brain (mice [2]) [mg] | Weight of Spleen (mice [2]) [mg] | Immobility Time (mice [3]) [min] | Glucose (blood) (mice [4]) | TGs (blood triglycerides) (mice [4]) | Total Ch (blood total cholesterol) (mice [4]) | Catalase (brain) (mice [5]) [IU/dL] | SOD (brain) (mice [5]) [IU/dL] | TBARS (brain lipid peroxidation) (mice [5]) [nmol/g] | inhibition in vivo at 10 mg/kg [1, 9] [%] | IC50, scavenging against DPPH [6] [µg/mL] | Immobility Time (Min) (mice [3]) |
| --- | --- | --- | --- | --- | --- | --- | --- | --- | --- | --- | --- | --- | --- | --- | --- |
| O=c1cc(-c2ccccc2)oc2ccccc12 [F1] | 58.9 | 19.45 ± 1.89 | 8.13 ± 1.69 mg | 398.1 ± 2.57 | 171.5 ± 2.71 | 4.05 ± 0.45 | 105 ± 2.15 mg/dL | 54.39 ± 0.87 | 81.33 ± 0.61 | 16.33 ± 0.69 | 7.96 ± 0.60 | 19.42 ± 0.51 | – | – | – |
| Cc1ccc(-c2cc(=O)c3ccccc3o2)cc1 [F2] | 72.3 | – | 7.63 ± 1.11 mg | 401.6 ± 3.11 | 180.4 ± 2.38 | 3.12 ± 0.38 | 99.23 ± 1.69 | 45.09 ± 0.67 | 78.61 ± 0.78 | 18.21 ± 0.61 | 8.77 ± 0.59 | 18.72 ± 0.62 | – | – | – |
| COc1ccc(-c2cc(=O)c3ccccc3o2)cc1 [F3] | 74.4 | – | 7.22 ± 1.51 mg | 411.3 ± 2.93 | 181.7 ± 2.06 | 2.88 ± 0.26 | 98.45 ± 1.51 | 44.69 ± 0.37 | 78.43 ± 0.93 | 18.92 ± 0.51 | 9.42 ± 0.87 | 18.44 ± 0.63 | – | – | – |
| O=c1cc(-c2ccc(Cl)cc2)oc2ccccc12 [F4] | – | 16.21 ± 2.09 | 8.03 ± 1.98 mg | 402.4 ± 3.19 | 173.1 ± 2.66 | 3.21 ± 0.19 | 100.92 ± 1.91 | 47.51 ± 0.38 | 80.76 ± 0.91 | 17.88 ± 0.59 | 9.31 ± 0.78 | 19.09 ± 0.49 | 65.8 | – | – |
| CN(C)c1ccc(-c2cc(=O)c3ccccc3o2)cc1 [F5] | 64.6 | 16.31 ± 2.58 | 8.12 ± 1.81 mg | 412.7 ± 2.81 | 170.3 ± 2.61 | 3.64 ± 0.21 | 101.33 ± 1.72 | 46.72 ± 0.51 | 81.82 ± 0.85 | 17.11 ± 0.51 | 8.04 ± 0.57 | 19.02 ± 0.71 | – | – | – |
| O=c1cc(-c2ccc(C(F)(F)F)cc2)oc2ccccc12 [F6] | 64.1 | 17.01 ± 1.89 | 8.09 ± 1.77 mg | 408.3 ± 2.60 | 171.1 ± 2.40 | 3.41 ± 0.23 | 102.09 ± 1.62 | 47.26 ± 0.44 | 82.01 ± 0.79 | 17.36 ± 0.62 | 8.13 ± 0.51 | 18.96 ± 0.60 | – | 174.24 ± 2.71 (≈ 600 µM) | – |
| O=c1c(O)c(-c2ccccc2)oc2ccccc12 [OF1] | 63.4 | 17.32 ± 2.33 | 8.09 ± 1.34 mg | 397.4 ± 3.76 | 188.4 ± 2.24 | 4.32 ± 0.31 | 105 ± 1.77 mg/dL | 51.22 ± 0.66 | 80.81 ± 0.72 | 17.02 ± 0.71 | 8.46 ± 0.76 | 19.25 ± 0.51 | – | – | – |
| Cc1ccc(-c2oc3ccccc3c(=O)c2O)cc1 [OF2] | 74.3 | – | 7.21 ± 1.87 mg | 414.2 ± 2.51 | 190.5 ± 2.76 | 2.95 ± 0.37 | 97.56 ± 1.61 | 42.88 ± 0.41 | 76.82 ± 0.86 | 18.74 ± 0.67 | 9.02 ± 0.54 | 17.74 ± 0.56 | – | – | – |
| COc1ccc(-c2oc3ccccc3c(=O)c2O)cc1 [OF3] | 80.9 | – | 6.79 ± 1.10 mg | 413.6 ± 2.66 | 194.8 ± 2.11 | 2.33 ± 0.28 | 97.06 ± 1.71 | 43.11 ± 0.36 | 76.09 ± 0.64 | 19.02 ± 0.77 | 9.58 ± 0.66 | 17.49 ± 0.61 | – | 25.54 ± 1.21 (≈ 95.2 µM) | – |
| O=c1c(O)c(-c2ccc(Cl)cc2)oc2ccccc12 [OF4] | – | 14.18 ± 2.17 | 7.91 ± 1.91 mg | 401.8 ± 2.34 | 183.9 ± 2.56 | 3.44 ± 0.25 | 101.15 ± 1.66 | 46.92 ± 0.44 | 78.33 ± 0.76 | 17.45 ± 0.66 | 8.35 ± 0.64 | 18.67 ± 0.76 | 67.1 | – | – |
| CN(C)c1ccc(-c2oc3ccccc3c(=O)c2O)cc1 [OF5] | 63.3 | 16.44 ± 3.04 | 8.04 ± 1.18 mg | 400.5 ± 2.21 | 186.3 ± 2.74 | 3.25 ± 0.29 | 101.09 ± 1.14 | 46.24 ± 0.39 | 77.91 ± 0.97 | 17.06 ± 0.61 | 8.11 ± 0.51 | 18.56 ± 0.51 | – | – | – |
| O=c1c(O)c(-c2ccc(C(F)(F)F)cc2)oc2ccccc12 [OF6] | – | 15.88 ± 2.11 | 8.11 ± 1.31 mg | 403.9 ± 2.239 | 179.1 ± 2.30 | 3.34 ± 0.25 | 100.32 ± 1.29 | 44.02 ± 0.30 | 77.02 ± 0.97 | 17.01 ± 0.52 | 8.03 ± 0.49 | 18.10 ± 0.51 | 66.5 | 122.33 ± 1.98 (≈ 399 µM) | – |
| CN1C(=O)CN=C(c2ccccc2)c2cc(Cl)ccc21 [Standard, Diazepam, reference compound] | – | – | 10.58 ± 5.77 ^ns mg | – | 158.3 ± 2.89 | – | 108.2 ± 1.06 mg/dL | 38.52 ± 0.57 | 75.62 ± 0.65 | – | – | – | – | – | reduced the immobility time to a significant level |
